# Measurements published in publication PMC6199744, “Development of Chemical Proteomics for the Folateome and Analysis of the Kinetoplastid Folateome” (ACS Infectious Diseases, 2018).
# Several values for one entry are separate records, joined by “and”; a condition that tells them apart may be missing. Equal entries are not always repeated. Where two headings read alike, the source gives them in different places.
# Key:
# Assay type in all cases: binding
# [1] = target: T1, HeLa cell extract proteins (Homo sapiens, UniProt P13995)
# T1 construct: endogenous in cells; host or cells: HeLa cell extract
# T1 sequence (P13995 36-350): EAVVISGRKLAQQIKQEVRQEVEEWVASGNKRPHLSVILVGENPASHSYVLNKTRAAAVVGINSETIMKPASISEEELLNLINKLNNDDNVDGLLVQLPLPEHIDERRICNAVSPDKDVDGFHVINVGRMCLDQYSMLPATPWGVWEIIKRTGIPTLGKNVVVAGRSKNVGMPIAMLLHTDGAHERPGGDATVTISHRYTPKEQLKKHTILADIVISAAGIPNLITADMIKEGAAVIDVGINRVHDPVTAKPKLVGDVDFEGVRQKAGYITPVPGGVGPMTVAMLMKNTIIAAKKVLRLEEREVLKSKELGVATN
# [2] = target: T2, HeLa cell extract proteins (Homo sapiens, UniProt P31153)
# T2 construct: endogenous in cells; host or cells: HeLa cell extract
# T2 sequence (P31153 whole entry): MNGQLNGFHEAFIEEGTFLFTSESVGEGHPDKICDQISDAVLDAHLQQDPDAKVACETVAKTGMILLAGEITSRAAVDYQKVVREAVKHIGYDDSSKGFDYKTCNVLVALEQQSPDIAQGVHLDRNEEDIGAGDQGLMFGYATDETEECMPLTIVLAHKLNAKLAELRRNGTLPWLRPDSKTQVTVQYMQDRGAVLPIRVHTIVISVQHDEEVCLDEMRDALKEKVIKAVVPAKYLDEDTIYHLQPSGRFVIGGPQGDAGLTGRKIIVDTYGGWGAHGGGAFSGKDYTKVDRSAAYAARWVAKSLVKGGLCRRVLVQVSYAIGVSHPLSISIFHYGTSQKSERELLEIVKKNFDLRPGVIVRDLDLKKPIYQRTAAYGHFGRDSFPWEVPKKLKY
# [3] = target: T3, HeLa cell extract proteins (Homo sapiens, UniProt P57678)
# T3 construct: endogenous in cells; host or cells: HeLa cell extract
# T3 sequence (P57678 1-1058): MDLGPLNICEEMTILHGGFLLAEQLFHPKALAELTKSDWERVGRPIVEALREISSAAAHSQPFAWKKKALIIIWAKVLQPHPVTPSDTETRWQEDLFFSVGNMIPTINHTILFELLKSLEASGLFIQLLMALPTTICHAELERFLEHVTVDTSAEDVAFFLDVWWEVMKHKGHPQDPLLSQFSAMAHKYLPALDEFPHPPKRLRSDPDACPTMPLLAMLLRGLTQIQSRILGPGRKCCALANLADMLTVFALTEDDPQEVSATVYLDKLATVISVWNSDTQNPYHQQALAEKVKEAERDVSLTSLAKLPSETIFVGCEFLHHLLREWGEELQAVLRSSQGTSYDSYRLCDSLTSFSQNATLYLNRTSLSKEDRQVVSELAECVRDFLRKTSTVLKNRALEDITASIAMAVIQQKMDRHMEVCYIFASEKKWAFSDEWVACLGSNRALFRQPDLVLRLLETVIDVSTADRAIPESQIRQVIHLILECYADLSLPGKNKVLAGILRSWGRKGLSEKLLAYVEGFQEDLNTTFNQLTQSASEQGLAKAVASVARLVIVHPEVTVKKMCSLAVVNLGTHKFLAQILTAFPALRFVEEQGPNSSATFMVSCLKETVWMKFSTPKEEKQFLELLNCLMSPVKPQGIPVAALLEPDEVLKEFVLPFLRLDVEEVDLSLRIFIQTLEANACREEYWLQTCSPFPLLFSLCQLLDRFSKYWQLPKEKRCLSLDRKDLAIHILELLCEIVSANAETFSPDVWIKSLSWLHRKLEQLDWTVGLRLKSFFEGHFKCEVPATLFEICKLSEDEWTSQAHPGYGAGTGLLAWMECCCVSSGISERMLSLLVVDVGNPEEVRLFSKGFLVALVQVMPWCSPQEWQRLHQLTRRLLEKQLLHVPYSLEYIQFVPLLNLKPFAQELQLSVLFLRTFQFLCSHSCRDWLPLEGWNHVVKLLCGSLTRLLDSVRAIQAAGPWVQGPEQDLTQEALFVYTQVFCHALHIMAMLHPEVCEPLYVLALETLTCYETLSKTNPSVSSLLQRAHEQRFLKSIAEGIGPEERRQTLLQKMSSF
# [4] = target: T4, HeLa cell extract proteins (Homo sapiens, UniProt Q9BVS4)
# T4 construct: endogenous in cells; host or cells: HeLa cell extract
# T4 sequence (Q9BVS4 whole entry): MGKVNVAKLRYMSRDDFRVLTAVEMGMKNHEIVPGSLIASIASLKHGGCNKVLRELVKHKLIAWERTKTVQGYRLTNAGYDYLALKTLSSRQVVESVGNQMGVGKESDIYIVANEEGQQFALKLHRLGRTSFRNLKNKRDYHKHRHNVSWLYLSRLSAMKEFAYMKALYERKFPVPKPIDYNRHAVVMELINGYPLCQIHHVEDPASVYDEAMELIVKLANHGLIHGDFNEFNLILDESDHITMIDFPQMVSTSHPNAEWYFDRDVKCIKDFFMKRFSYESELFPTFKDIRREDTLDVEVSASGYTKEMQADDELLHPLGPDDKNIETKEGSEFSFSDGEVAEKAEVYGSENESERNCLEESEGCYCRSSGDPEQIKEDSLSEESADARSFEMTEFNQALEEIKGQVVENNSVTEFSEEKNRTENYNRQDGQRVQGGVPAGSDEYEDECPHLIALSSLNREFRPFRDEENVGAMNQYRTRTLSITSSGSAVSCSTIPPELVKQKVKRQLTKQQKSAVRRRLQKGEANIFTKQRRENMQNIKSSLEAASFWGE
# [5] = target: T5, HeLa cell extract proteins (Homo sapiens, UniProt Q9HA64)
# T5 construct: endogenous in cells; host or cells: HeLa cell extract
# T5 sequence (Q9HA64 1-309): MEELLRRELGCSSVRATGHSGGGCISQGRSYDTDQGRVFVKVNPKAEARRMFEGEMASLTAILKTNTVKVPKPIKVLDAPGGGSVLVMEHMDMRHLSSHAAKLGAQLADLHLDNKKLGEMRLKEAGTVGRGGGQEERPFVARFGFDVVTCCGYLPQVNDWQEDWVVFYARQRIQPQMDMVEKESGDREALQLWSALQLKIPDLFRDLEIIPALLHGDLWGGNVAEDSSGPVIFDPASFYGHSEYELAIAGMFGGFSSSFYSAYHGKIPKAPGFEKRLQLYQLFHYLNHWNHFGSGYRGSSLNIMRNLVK
# [6] = tested on: HeLa cell extract proteins
# [7] = HeLa, protein FN3KRP (KETOSAMINE-3-KINASE)
# [8] = HeLa, captured protein LOC442497
# [9] = HeLa, protein ABCB7 (ISOFORM 2 OF ATP-BINDING CASSETTE SUB-FAMILY B MEMBER 7, MIT[…])
# [10] = HeLa, protein ASAH1 (N-ACYLSPHINGOSINE AMIDOHYDROLASE (ACID CERAMIDASE) 1 ISOFORM B)
# [11] = HeLa, protein MYL6 (ISOFORM SMOOTH MUSCLE OF MYOSIN LIGHT POLYPEPTIDE 6)
# [12] = HeLa, protein PSMA1 (ISOFORM LONG OF […] ALPHA TYPE 1)
# [13] = HeLa, protein PSME1 ([…] SUBUNIT 1 ISOFORM 2)
# [14] = HeLa, protein GTPBP3 (ISOFORM 2 OF TRNA MO[…] GTPBP3, MIT[…])
# [15] = HeLa, protein A8MV93_HUMAN (SIMILAR TO CYTOCHROME C.)
# [16] = HeLa, protein CTNNA1 (ISOFORM 2 OF CATENIN ALPHA-1.)
# [17] = HeLa, protein EIF5A (ISOFORM 2 OF EUKARYOTIC TRANSLATION INITIATION FACTOR 5A-1.)
# [18] = HeLa, protein LOC654188 (SIMILAR TO PEPT[…] A-LIKE.)
# [19] = HeLa, protein NME1-NME2 (NUCLEOSIDE DIPHOSPHATE KINASE.)
Compound,"fold changes relative to vehicle control ([6]; HeLa, captured protein EIF1AP1)","fold changes relative to vehicle control [6, 8]","fold changes relative to vehicle control [6, 9]","fold changes relative to vehicle control [6, 10]","fold changes relative to vehicle control ([6]; HeLa, protein LOC654188)","fold changes relative to vehicle control [6, 11]","fold changes relative to vehicle control ([6]; HeLa, protein NME1-NME2)","fold changes relative to vehicle control [6, 12]","fold changes relative to vehicle control [6, 13]","fold changes relative to vehicle control ([6]; HeLa, protein RPLP0-LIKE)","fold changes relative to vehicle control ([6]; protein HIST2H2BA, HeLa)","fold changes relative to vehicle control ([6]; protein LOC646960, HeLa)","fold changes relative to vehicle control ([1]; protein MTHFD2, HeLa)","fold changes relative to vehicle control ([2]; protein MAT2A, HeLa)","fold changes relative to vehicle control ([3]; captured protein GEMIN4, HeLa)","fold changes relative to vehicle control ([4]; captured protein RIOK2, HeLa)","fold changes relative to vehicle control ([5]; protein FN3KRP, HeLa)","fold changes relative to vehicle control [6, 15]","fold changes relative to vehicle control [6, 16]","fold changes relative to vehicle control ([6]; HeLa, protein LOC646960)",further results
"Nc1nc2c(c(=O)[nH]1)N(C=O)C(CNc1ccc(C(=O)N[C@@H](CCC(=O)O)C(=O)O)cc1)CN2 (some centres unmarked) [LEU, leucovorin]",0.99,1.06,1.18,1.17,0.98,1.06,0.99,1.18,1.03,0.86,0.92,0.84,,,,,,,,,"fold changes relative to vehicle control ([1]; HeLa, captured protein MTHFD2): 0.7; fold changes relative to vehicle control ([2]; HeLa, protein MAT2A): 0.99; fold changes relative to vehicle control ([3]; HeLa, protein GEMIN4): 0.93; fold changes relative to vehicle control ([4]; HeLa, protein RIOK2): 0.84; fold changes relative to vehicle control [5, 7]: 1.08; fold changes relative to vehicle control ([6]; HeLa, protein GTPBP3 (ISOFORM 2 OF TRNA MODIFICATION GTPASE GTPBP3, MITOCHONDRIAL PRECURSOR)): 0.27"
"Nc1nc2[nH]cc(CCc3ccc(C(=O)N[C@@H](CCC(=O)O)C(=O)O)cc3)c2c(=O)[nH]1 [PTX, pemetrexed]",0.95,1.08,1.19,1.19,1.12,1.4,1.08,1.09,1,0.92,0.94,0.95,,,,,,,,,"fold changes relative to vehicle control [1]: 1.05; fold changes relative to vehicle control [2]: 1.07; fold changes relative to vehicle control [3]: 0.94; fold changes relative to vehicle control [4]: 0.33; fold changes relative to vehicle control [5]: 1.01; fold changes relative to vehicle control [6, 14]: 0.49"
CCCCCCOc1ccc(Cc2cnc(N)nc2N)cc1 [compound 1],,,,,,,,,,,,,0.09,1.21,0.88,0.94,1,1.4 fold,1.26 fold,1.15,"fold changes relative to vehicle control [6, 17]: 1.5 fold; fold changes relative to vehicle control [6, 18]: 1.34 fold; fold changes relative to vehicle control [6, 19]: 1.36 fold; fold changes relative to vehicle control ([6]; protein EIF1AP1, HeLa): 1.3; fold changes relative to vehicle control ([6]; protein LOC442497, HeLa): 1.12; fold changes relative to vehicle control ([6]; protein RPLP0-LIKE, HeLa): 0.94"
CCCCCCOc1cccc(Cc2cnc(N)nc2N)c1 [compound 2],,,,,,,,,,,,,0.95,1.55,0.92,0.95,0.9,2.46 fold,2.1 fold,1.08,"fold changes relative to vehicle control [6, 17]: 2.05 fold; fold changes relative to vehicle control ([6]; HeLa, protein LOC654188 (SIMILAR TO PEPTIDYLPROLYL ISOMERASE A-LIKE.)): 2.15 fold; fold changes relative to vehicle control [6, 19]: 2.13 fold; fold changes relative to vehicle control ([6]; protein EIF1AP1, HeLa): 1.77; fold changes relative to vehicle control ([6]; protein LOC442497, HeLa): 1.38; fold changes relative to vehicle control ([6]; protein RPLP0-LIKE, HeLa): 1.23"
Nc1nc2cccc(-c3ccccc3)c2n1Cc1ccc(Cl)c(Cl)c1 [compound 3],,,,,,,,,,,,,1.03,1.01,1.02,0.95,1.04,1.12 fold,2.07 fold,1.08,"fold changes relative to vehicle control [6]: 0.88 fold and 1 fold; fold changes relative to vehicle control [6, 18]: 0.91 fold; fold changes relative to vehicle control ([6]; protein EIF1AP1, HeLa): 0.97; fold changes relative to vehicle control ([6]; protein LOC442497, HeLa): 1.03; fold changes relative to vehicle control ([6]; protein RPLP0-LIKE, HeLa): 1.04"
NCCOCCOCC(=O)Nc1nc2ncc(CNc3ccc(C(=O)NC(CCC(=O)O)C(=O)O)cc3)nc2c(=O)[nH]1 (centres unmarked) [compound 6],1.27,1.13,1.25,1.17,1.3,1.7,1.27,1.05,1.04,0.88,1.03,1.05,,,,,,,,,"fold changes relative to vehicle control ([1]; HeLa, captured protein MTHFD2): 1.06; fold changes relative to vehicle control ([2]; HeLa, protein MAT2A): 1.16; fold changes relative to vehicle control ([3]; HeLa, protein GEMIN4): 1.02; fold changes relative to vehicle control ([4]; HeLa, protein RIOK2): 0.82; fold changes relative to vehicle control [5, 7]: 0.85; fold changes relative to vehicle control [6, 14]: 1.03"
